In patent US20120053053A1, “PYRIMIDINE DERIVATIVES AND THEIR USE AS HERBICIDES” (SYNGENTA CROP PROTECTION, LLC, priority 2009, published 2012):

How the values were obtained:
Type in all cases: in vivo
[1] = system: Alopecurus myosuroides (ALOMY); assay: Pre-emergence biological efficacy (percentage damage); settings: Alopecurus myosuroides, 312 h, dose 1,000 g/ha, evaluated after 13 days, 100=total damage, 0=no damage
Procedure: (§1) Seeds of Alopecurus myosuroides (ALOMY), Setaria faberi (SETFA), Echinochloa crus-galli (ECHCG), Solanum nigrum (SOLNI), Amaranthus retoflexus (AMARE) and Ipomea hederaceae (IPOHE) were sown in standard soil in pots. After cultivation for one day under controlled conditions in a glasshouse (at 24/16° C., day/night; 14 hours light; 65% humidity), the plants were sprayed with an aqueous spray solution derived from the formulation of the technical active ingredient in acetone/water (50:50) solution containing 0.5% Tween 20 (polyoxyethylene sorbitan monolaurate, CAS RN 9005-64-5) to give a final dose of 250 or 1000 g/ha of test compound. The test plants were then grown under controlled conditions in the glasshouse (at 24/16° C., day/night; 14 hours light; 65% humidity) and watered twice daily. After 13 days the test was evaluated (100=total damage to plant; 0=no damage to plant).

[2] = system: Amaranthus retoflexus (AMARE); assay: as above; settings: Amaranthus retroflexus, 312 h, dose 1,000 g/ha, evaluated after 13 days, 100=total damage, 0=no damage
Procedure: as §1

[3] = system: Echinochloa crus-galli (ECHCG); assay: as above; settings: Echinochloa crus-galli, 312 h, dose 1,000 g/ha, evaluated after 13 days, 100=total damage, 0=no damage
Procedure: as §1

[4] = system: Ipomea hederaceae (IPOHE); assay: as above; settings: Ipomoea hederacea, 312 h, dose 1,000 g/ha, evaluated after 13 days, 100=total damage, 0=no damage
Procedure: as §1

Setaria faberi (SETFA) [5] = assay: as above; settings: Setaria faberi, 312 h, dose 1,000 g/ha, evaluated after 13 days, 100=total damage, 0=no damage
Procedure: as §1

Solanum nigrum (SOLNI) [6] = assay: as above; settings: Solanum nigrum, 312 h, dose 1,000 g/ha, evaluated after 13 days, 100=total damage, 0=no damage
Procedure: as §1

[7] = system: Alopecurus myosuroides (ALOMY); assay: Post-emergence biological efficacy (percentage damage); settings: Alopecurus myosuroides, 312 h, dose 1,000 g/ha, evaluated after 13 days, 100=total damage, 0=no damage
Procedure: as §1, with “for 8 days” for “for one day”, “grown on” for “grown”, “in a” for “in the”

[8] = system: Amaranthus retoflexus (AMARE); assay: as above; settings: Amaranthus retroflexus, 312 h, dose 1,000 g/ha, evaluated after 13 days, 100=total damage, 0=no damage
Procedure: as §1, with “for 8 days” for “for one day”, “grown on” for “grown”, “in a” for “in the”

[9] = system: Echinochloa crus-galli (ECHCG); assay: as above; settings: Echinochloa crus-galli, 312 h, dose 1,000 g/ha, evaluated after 13 days, 100=total damage, 0=no damage
Procedure: as §1, with “for 8 days” for “for one day”, “grown on” for “grown”, “in a” for “in the”

[10] = system: Ipomea hederaceae (IPOHE); assay: as above; settings: Ipomoea hederacea, 312 h, dose 1,000 g/ha, evaluated after 13 days, 100=total damage, 0=no damage
Procedure: as §1, with “for 8 days” for “for one day”, “grown on” for “grown”, “in a” for “in the”

Setaria faberi (SETFA) [11] = assay: as above; settings: Setaria faberi, 312 h, dose 1,000 g/ha, evaluated after 13 days, 100=total damage, 0=no damage
Procedure: as §1, with “for 8 days” for “for one day”, “grown on” for “grown”, “in a” for “in the”

Solanum nigrum (SOLNI) [12] = assay: as above; settings: Solanum nigrum, 312 h, dose 1,000 g/ha, evaluated after 13 days, 100=total damage, 0=no damage
Procedure: as §1, with “for 8 days” for “for one day”, “grown on” for “grown”, “in a” for “in the”

SMILES	pest or weed control at 1000 g/ha [1] [%]	pest or weed control at 1000 g/ha [2] [%]	pest or weed control at 1000 g/ha [3] [%]	pest or weed control at 1000 g/ha [4] [%]	pest or weed control at 1000 g/ha (Setaria faberi (SETFA) [5]) [%]	pest or weed control at 1000 g/ha (Solanum nigrum (SOLNI) [6]) [%]	pest or weed control at 1000 g/ha [7] [%]	pest or weed control at 1000 g/ha [8] [%]	pest or weed control at 1000 g/ha [9] [%]	pest or weed control at 1000 g/ha [10] [%]	pest or weed control at 1000 g/ha (Setaria faberi (SETFA) [11]) [%]	pest or weed control at 1000 g/ha (Solanum nigrum (SOLNI) [12]) [%]
Cc1c(Cl)nc(C2CC2)nc1OCC(=O)O [Compound 2-375, (4-chloro-2-cyclopropyl-5-methyl-pyrimidin-6-yloxy)-acetic acid]	0	0	0	20	0	0	0	10	0	20	0	10
COC(=O)COc1nc(C2CC2)nc(Cl)c1C [Compound 2-376, 4-chloro-2-cyclopropyl-6-methoxycarbonylmethoxy-5-methylpyrimidine]	0	30	0	0	0	0	0	20	0	50	20	30
Cc1c(OCC(=O)OC(C)(C)C)nc(C2CC2)nc1OCC(=O)OC(C)(C)C [Compound 2-389, 4,6-bis(t-butoxy-carbonyl-methoxy)-2-cyclo-propyl-5-methyl-pyrimidine]	0	20	0	0	0	0	0	0	0	20	0	30
C=Cc1c(OC)nc(C2CC2)nc1C(=O)OC [Compound 2-398, 2-Cyclopropyl-5-ethenyl-4-methoxy-6-methoxy-carbonyl-pyrimidine]	0	90	0	100	0	90	0	90	0	90	0	80
C=Cc1c(N=[N+]=[N-])nc(C2CC2)nc1C(=O)OC [Compound 2-399, 4-azido-2-cyclopropyl-5-ethenyl-6-methoxycarbonyl-pyrimidine]	0	0	0	0	0	0	0	20	0	20	0	20
C=Cc1c(SC)nc(C2CC2)nc1C(=O)OC [Compound 2-400, 2-cyclopropyl-5-ethenyl-6-methoxycarbonyl-4-methylthio-pyrimidine]	0	90	0	60	0	100	0	80	0	60	0	100
C=Cc1c(C(=O)OC)nc(C2CC2)nc1S(C)(=O)=O [Compound 2-402, 2-cyclopropyl-5-ethenyl-6-methoxycarbonyl-4-methylsulphonyl-pyrimidine]	0	0	0	0	0	0	0	0	0	50	0	20
COC(=O)c1nc(-c2ccc(Cl)cc2)nc(N)c1C [Compound 5-41]	20	100	30	10	30	30	30	100	20	40	30	70
C=Cc1c(N)nc(-c2ccc(Cl)cc2)nc1C(=O)OC [Compound 5-61, 4-Amino-2-(4-chlorophenyl)-5-ethenyl-6-methoxycarbonyl-pyrimidine]	60	100	60	90	60	90	80	100	90	100	100	100
C=Cc1c(N)nc(-c2ccc(Br)cc2)nc1C(=O)OC [Compound 6-61, 4-Amino-2-(4-bromophenyl)-5-ethenyl-6-methoxycarbonyl-pyrimidine]	70	100	50	80	30	90	60	100	50	70	30	90
C=Cc1c(N)nc(-c2ccc(Cl)c(Cl)c2)nc1C(=O)OC [Compound 9-61, 4-Amino-2-(3,4-dichlorophenyl)-5-ethenyl-6-methoxycarbonyl-pyrimidine]	0	90	30	10	0	70	20	100	20	70	0	90
C=Cc1c(N)nc(-c2ccc(Cl)c(C(F)(F)F)c2)nc1C(=O)OC [Compound 14-61, 4-Amino-2-(4-chloro-3-trifluoromethyl-phenyl)-5-ethenyl-6-methoxycarbonyl-pyrimidine]	10	60	20	10	10	40	0	10	0	40	0	80
